Laboratory results published in patent US10226451B2, “Substituted bicyclic compounds as bromodomain inhibitors” (ZENITH EPIGENETICS LTD, priority 2013, dated 2019).

How the values were obtained:
[1] = molecular target: T1, Brd4 bromodomain 1 (BRD4(1)) (Homo sapiens, UniProt O60885); test: Inhibition of tetra-acetylated histone H4 binding to Brd4 bromodomain 1 (HTRF/FRET); settings: tetra-acetylated histone H4 peptide, His-tagged bromodomain 200 nM, 2 h
T1 construct: made in house; host or cells: E. coli BL21(DE3)
Procedure: Proteins were cloned and overexpressed with a N-terminal 6×His tag, then purified by nickel affinity followed by size exclusion chromatography. Briefly, E. coli BL21(DE3) cells were transformed with a recombinant expression vector encoding N-terminally Nickel affinity tagged bromodomains from Brd2, Brd3, Brd4. Cell cultures were incubated at 37° C. with shaking to the appropriate density and induced overnight with IPTG. The supernatant of lysed cells was loaded onto Ni-IDA column for purification. Eluted protein was pooled, concentrated and further purified by size exclusion chromatography. Fractions representing monomeric protein were pooled, concentrated, aliquoted, and frozen at −80° C. for use in subsequent experiments.
Binding of tetra-acetylated histone H4 and BET bromodomains was confirmed by a Homogenous Time Resolved Fluorescence Resonance Energy Transfer (HTRF®) method. N-terminally His-tagged bromodomains (200 nM) and biotinylated tetra-acetylated histone H4 peptide (25-50 nM, Millipore) were incubated in the presence of Europium Cryptate-labeled streptavidin (Cisbio Cat. #610SAKLB) and XL665-labeled monoclonal anti-His antibody (Cisbio Cat. #61HISXLB) in a white 96 well microtiter plate (Greiner). For inhibition assays, serially diluted test compound was added to these reactions in a 0.2% final concentration of DMSO. Duplicate wells were used for each concentration tested. Final buffer concentrations were 30 mM HEPES pH 7.4, 30 mM NaCl, 0.3 mM CHAPS, 20 mM phosphate pH 7.0, 320 mM KF, 0.08% BSA. After a 2 h incubation at room temperature, fluorescence was measured at 665 and 620 nm with a SynergyH4 plate reader (Biotek). The binding inhibitory activity was shown by a decrease in 665 nm relative to 620 nm fluorescence. IC50 values were determined from a dose response curve.

[2] = test system: c-myc in Human AML MV4-11 cells; test: Inhibition of c-MYC expression (mRNA, real-time PCR) in MV4-11 cells; format: cell-based; settings: 3 h, mRNA by real-time PCR
Procedure: MV4-11 cells (CRL-9591) were plated at a density of 2.5×10^4 cells per well in 96 well U-bottom plates and treated with increasing concentrations of test compound or DMSO (0.1%) in IMDM media containing 10% FBS and penicillin/streptomycin, and incubated for 3 h at 37° C. Triplicate wells were used for each concentration. Cells were pelleted by centrifugation and harvested using the mRNA Catcher PLUS kit according to manufacturer's instructions. The eluted mRNA isolated was then used in a one-step quantitative real-time PCR reaction, using components of the RNA UltraSense™ One-Step Kit (Life Technologies) together with Applied Biosystems TaqMan® primer-probes for cMYC and Cyclophilin. Real-time PCR plates were run on a ViiA™7 real time PCR machine (Applied Biosystems), data was analyzed, normalizing the Ct values for hMYC to an internal control, prior to determining the fold expression of each sample, relative to the control.

[3] = test system: Human AML MV-4-11 cells; test: Inhibition of cell proliferation in MV4-11 cells (CellTiter Aqueous One); format: cell-based; settings: 72 h
Procedure: In this example, cell titer in MV4-11 cells were quantitated to measure the inhibition of proliferation when treated with a compound of the present disclosure.
MV4-11 cells (CRL-9591) were plated at a density of 5×10^4 cells per well in 96 well flat bottom plates and treated with increasing concentrations of test compound or DMSO (0.1%) in IMDM media containing 10% FBS and penicillin/streptomycin. Triplicate wells were used for each concentration and a well containing only media was used as a control. Plates were incubated at 37° C., 5% CO2 for 72 h before adding 20 μL of the CellTiter Aqueous One Solution (Promega) to each well and incubated at 37° C., 5% CO2 for an additional 3-4 h. The absorbance was read at 490 nm in a spectrophotometer and the percentage of cell titer relative to DMSO-treated cells was calculated after correcting for background by subtracting the blank well's signal. IC50 values were calculated using the Graph Pad Prism software.

[4] = test system: hIL-6 mRNA in U937 cells; test: Inhibition of hIL-6 mRNA transcription in LPS-stimulated U937 cells; format: cell-based; settings: Homo sapiens, U-937, PMA-differentiated U937 cells, LPS 1 ug/mL, 3 h, read-out: IL-6 activity
Procedure: In this example, hIL-6 mRNA in tissue culture cells were quantitated to measure the transcriptional inhibition of hIL-6 when treated with a compound of the present disclosure.
Human leukemic monocyte lymphoma U937 cells (CRL-1593.2) were plated at a density of 3.2×10^4 cells per well in a 96-well plate in 100 μL RPMI-1640 containing 10% FBS and penicillin/streptomycin, and differentiated into macrophages for 3 days in 60 ng/mL PMA ([…]) at 37° C. in 5% CO2 prior to the addition of compound. The cells were pretreated for 1 h with increasing concentrations of test compound in 0.1% DMSO prior to stimulation with 1 ug/mL lipopolysaccharide from Escherichia coli. Triplicate wells were used for each concentration. The cells were incubated at 37° C., 5% CO2 for 3 h before the cells were harvested. At time of harvest, media was removed and cells were rinsed in 200 μL PBS. Cells were harvested using the mRNA Catcher PLUS kit according to manufacturer's instructions. The eluted mRNA was then used in a one-step quantitative real-time PCR reaction using components of the RNA UltraSense™ One-Step Kit (Life Technologies) together with Applied Biosystems TaqMan® primer-probes for hIL-6 and Cyclophilin. Real-time PCR plates were run on a ViiA™7 real time PCR machine (Applied Biosystems), data was analyzed, normalizing the Ct values for hIL-6 to an internal control, prior to determining the fold expression of each sample, relative to the control.

Compound | IC50 [1] [nM] | IC50 [2] [nM] | IC50 [3] [nM] | IC50 [4] [nM]
Cc1noc(C)c1-c1cc(-c2c(C)noc2C)c2oc(=O)[nH]c2c1 [Example Compound 3, 5,7-bis(3,5-dimethylisoxazol-4-yl)benzo[d]oxazol-2(3H)-one] | ≤ 300 | 3000 to 30000 | 3000 to 30000 | 300 to 3000
Cc1ccncc1-c1cc(-c2c(C)noc2C)cc2[nH]c(=O)n(C)c12 [Example Compound 6, 5-(3,5-dimethylisoxazol-4-yl)-1-methyl-7-(4-methylpyridin-3-yl)-1H-benzo[d]imidazol-2(3H)-one] | ≤ 300 | ≤ 300 | 300 to 3000 | ≤ 300
Cc1noc(C)c1-c1cc(-c2cccnc2C(F)(F)F)c2c(c1)[nH]c(=O)n2C [Example Compound 8, 5-(3,5-dimethylisoxazol-4-yl)-1-methyl-7-(2-(trifluoromethyl)pyridin-3-yl)-1H-benzo[d]imidazol-2(3H)-one] | ≤ 300 | 300 to 3000 | 300 to 3000 | 300 to 3000
COc1ccc(C)cc1-c1cc(-c2c(C)noc2C)cc2[nH]c(=O)n(C)c12 [Example Compound 12, 5-(3,5-dimethylisoxazol-4-yl)-7-(2-methoxy-5-methylphenyl)-1-methyl-1H-benzo[d]imidazol-2(3H)-one] | ≤ 300 | – | 300 to 3000 | 300 to 3000
Cc1ccc(C#N)cc1-c1cc(-c2c(C)noc2C)cc2[nH]c(=O)n(C)c12 [Example Compound 16, 3-(6-(3,5-dimethylisoxazol-4-yl)-3-methyl-2-oxo-2,3-dihydro-1H-benzo[d]imidazol-4-yl)-4-methylbenzonitrile] | ≤ 300 | ≤ 300 | 300 to 3000 | 300 to 3000
Cc1ccc(Cl)cc1-c1cc(-c2c(C)noc2C)cc2[nH]c(=O)n(C)c12 [Example Compound 19, 7-(5-chloro-2-methylphenyl)-5-(3,5-dimethylisoxazol-4-yl)-1-methyl-1H-benzo[d]imidazol-2(3H)-one] | ≤ 300 | ≤ 300 | 300 to 3000 | 300 to 3000
Cc1noc(C)c1-c1cc(-c2c(C)nn(C)c2C)c2[nH]c(=S)[nH]c2c1 [Example Compound 23, 6-(3,5-dimethylisoxazol-4-yl)-4-(1,3,5-trimethyl-1H-pyrazol-4-yl)-1H-benzo[d]imidazole-2(3H)-thione] | ≤ 300 | ≤ 300 | ≤ 300 | ≤ 300
Cc1ncccc1Nc1cc(-c2c(C)noc2C)cc2[nH]c(=O)n(C)c12 [Example Compound 27, 5-(3,5-dimethylisoxazol-4-yl)-1-methyl-7-((2-methylpyridin-3-yl)amino)-1H-benzo[d]imidazol-2(3H)-one] | ≤ 300 | ≤ 300 | 300 to 3000 | ≤ 300
Cc1ccc(C(N)=O)cc1-c1cc(-c2c(C)noc2C)cc2[nH]c(=O)n(C)c12 [Example Compound 29, 3-(6-(3,5-dimethylisoxazol-4-yl)-3-methyl-2-oxo-2,3-dihydro-1H-benzo[d]imidazol-4-yl)-4-methylbenzamide] | ≤ 300 | ≤ 300 | 300 to 3000 | 300 to 3000
Cc1noc(C)c1Nc1cc(-c2c(C)noc2C)cc2[nH]c(=O)n(C)c12 [Example Compound 33, 5-(3,5-dimethylisoxazol-4-yl)-7-((3,5-dimethylisoxazol-4-yl)amino)-1-methyl-1H-benzo[d]imidazol-2(3H)-one] | ≤ 300 | ≤ 300 | 300 to 3000 | 300 to 3000
Cc1noc(C)c1-c1cc(-c2c(Cl)cncc2Cl)c2c(c1)[nH]c(=O)n2C [Example Compound 35, 7-(3,5-dichloropyridin-4-yl)-5-(3,5-dimethylisoxazol-4-yl)-1-methyl-1H-benzo[d]imidazol-2(3H)-one] | ≤ 300 | – | – | 300 to 3000
Cc1ccccc1-c1cc(-c2c(C)noc2C)cc2[nH]c(=O)n(C)c12 [Example Compound 40, 5-(3,5-dimethylisoxazol-4-yl)-1-methyl-7-(o-tolyl)-1H-benzo[d]imidazol-2(3H)-one] | ≤ 300 | ≤ 300 | 300 to 3000 | 300 to 3000

Further lines, results first:

IC50 [1] [nM] | IC50 [2] [nM] | IC50 [3] [nM] | IC50 [4] [nM] | Compound
≤ 300 | ≤ 300 | 300 to 3000 | 300 to 3000 | Cc1nn(C)c(C)c1Nc1cc(-c2c(C)noc2C)cc2[nH]c(=O)n(C)c12 [Example Compound 26, 5-(3,5-dimethylisoxazol-4-yl)-1-methyl-7-((1,3,5-trimethyl-1H-pyrazol-4-yl)amino)-1H-benzo[d]imidazol-2(3H)-one]
≤ 300 | 300 to 3000 | 300 to 3000 | ≤ 300 | Cc1ncccc1Oc1cc(-c2c(C)noc2C)cc2[nH]c(=O)n(C)c12 [Example Compound 31, 5-(3,5-dimethylisoxazol-4-yl)-1-methyl-7-((2-methylpyridin-3-yl)oxy)-1H-benzo[d]imidazol-2(3H)-one]
≤ 300 | ≤ 300 | 300 to 3000 | ≤ 300 | Cc1n[nH]c(C)c1-c1cc(-c2c(C)noc2CO)cc2[nH]c(=O)n(C)c12 [Example Compound 32, 7-(3,5-dimethyl-1H-pyrazol-4-yl)-5-(5-(hydroxymethyl)-3-methylisoxazol-4-yl)-1-methyl-1H-benzo[d]imidazol-2(3H)-one]
≤ 300 | ≤ 300 | 300 to 3000 | ≤ 300 | Cc1noc(C)c1-c1cc(-c2cccc3ccccc23)c2c(c1)[nH]c(=O)n2C [Example Compound 34, 5-(3,5-dimethylisoxazol-4-yl)-1-methyl-7-(naphthalen-1-yl)-1H-benzo[d]imidazol-2(3H)-one]
≤ 300 | 300 to 3000 | 300 to 3000 | 300 to 3000 | Cc1cnccc1-c1cc(-c2c(C)noc2C)cc2[nH]c(=O)n(C)c12 [Example Compound 38, 5-(3,5-dimethylisoxazol-4-yl)-1-methyl-7-(3-methylpyridin-4-yl)-1H-benzo[d]imidazol-2(3H)-one]
≤ 300 | ≤ 300 | 300 to 3000 | ≤ 300 | Cc1cncc(C)c1-c1cc(-c2c(C)noc2C)cc2[nH]c(=O)n(C)c12 [Example Compound 39, 5-(3,5-dimethylisoxazol-4-yl)-7-(3,5-dimethylpyridin-4-yl)-1-methyl-1H-benzo[d]imidazol-2(3H)-one]
